# Patent US8916499B2, “Herbicidal compositions comprising 4-amino-3-chloro-5-fluoro-6-(4-chloro-2-fluoro-3-methoxyphenyl) pyridine-2-carboxylic acid or a derivative thereof and a protoporphyrinogen oxidase inhibitor” (Dow AgroSciences LLC, priority 2012, dated 2014)
# Several values for one entry are separate records, joined by “and”; a condition that tells them apart may be missing. Equal entries are not always repeated.
# Legend:
# ECHCG = test: Postemergence foliar-applied weed control, direct seeded rice, greenhouse (Example I); assay type: in vivo, Echinochloa crusgalli (L.) Beauv.
# LEFCH [1] = test: as above; assay type: in vivo, Leptochloa chinensis (L.) Nees; conditions: g ae/ha Compound A Benzyl Ester+g ai/ha saflufenacil: r26 8.75+0, r27 17.5+0, r28 0+5, r29 0+10, r30 8.75+5, r31 17.5+5, r32 8.75+10, r33 17.5+10
# CYPIR = test: as above; assay type: in vivo, Cyperus iria L.
# ECHCO = test: as above; assay type: in vivo, Echinochloa colona (L.) Link
# IPOHE [2] = test: as above; assay type: in vivo, Ipomoea hederacea Jacq.; conditions: g ae/ha Compound A Benzyl Ester+g ai/ha oxadiazon: r33 17.5+0, r34 0+250, r35 17.5+250
# ECHOR = test: In-water applied weed control, transplanted paddy rice, greenhouse (Example II); assay type: in vivo, Echinochloa oryzoides (Ard.) Fritsch
# LEFCH [3] = test: as above; assay type: in vivo, Leptochloa chinensis (L.) Nees
# CYPRO = test: as above; assay type: in vivo, Cyperus rotundus L.
# SCPMA = test: as above; assay type: in vivo
# IPOHE [4] = test: Pre-emergence soil-applied weed control, greenhouse (Example IV); assay type: in vivo, Ipomoea hederacea (L.) Jacq.
# Text: (§1) Seeds or nutlets of the desired test plant species were planted in a soil matrix prepared by mixing a loam soil (32 percent silt, 23 percent clay, and 45 percent sand, with a pH of about 6.5 and an organic matter content of about 1.9 percent) and calcareous grit in an 80 to 20 ratio. The soil matrix was contained in plastic pots with a volume of 1 quart and a surface area of 83.6 square centimeters (cm^2).
# (§2) Treatments consisted of the benzyl ester of 4-amino-3-chloro-5-fluoro-6-(4-chloro-2-fluoro-3-methoxy-phenyl)pyridine-2-carboxylic acid (compound A) formulated as an SC (suspension concentrate) and various herbicidal components alone and in combination. Forms of compound A were applied on an acid equivalent basis.
# (§3) Other herbicidal components were applied on an acid equivalent or active ingredient basis and included the protoporphyrinogen oxidase (PPO)-inhibiting herbicides, flumioxazin formulated as Payload® and oxadiazon formulated as Ronstar® 50W.
# (§4) Treatment requirements were calculated based upon the rates being tested, the concentration of active ingredient or acid equivalent in the formulation, and a 12 mL application volume at a rate of 187 L/ha.
# (§5) For treatments comprised of formulated compounds, measured amounts of compounds were placed individually in 25 mL glass vials and diluted in a volume of 1.25% (v/v) Agri-Dex® crop oil concentrate (COC) to obtain 12× stock solutions. […] Application solutions were prepared by adding an appropriate amount of each stock solution (e.g., 1 mL) and diluted to the appropriate final concentrations with the addition of 10 mL of an aqueous mixture of 1.25% (v/v) COC so that the final spray solutions contained 1.25% (v/v) COC.
# (§6) All stock solutions and applications solutions were visually inspected for compound compatibility prior to application. Spray solutions were applied to the soil with an overhead Mandel track sprayer equipped with a 8002E nozzles calibrated to deliver 187 L/ha over an application area of 0.503 m^2 at a spray height of 18 inches (46 cm) above average pot height. Control pots were sprayed in the same manner with the solvent blank.
# (§7) The treated and control pots were placed in a greenhouse and top watered as needed. When required to ensure good germination and healthy plants, a fungicide treatment and/or other chemical or physical treatment was applied. The pots were maintained in a greenhouse with an approximate 14 hr photoperiod which was maintained at about 29° C. during the day and 26° C. during the night. Nutrients (Peters® Excel 15-5-15 5-Ca 2-Mg) were applied in the irrigation solution as needed and water was added on a regular basis. Supplemental lighting was provided with overhead metal halide 1000-Watt lamps as necessary. After approximately 4 weeks, the condition of the test plants as compared with that of the untreated plants was determined visually and scored on a scale of 0 to 100 percent where 0 corresponds to no injury or growth inhibition and 100 corresponds to complete kill.
# Colby's equation was used to determine the herbicidal effects expected from the mixtures (Colby, S. R. 1967. Calculation of the synergistic and antagonistic response of herbicide combinations. Weeds 15:20-22.).
# The following equation was used to calculate the expected activity of mixtures containing two active ingredients, A and B: Expected=A+B−(A×B/100)
# SETVI = test: as above; assay type: in vivo, Setaria viridis (L.) Beauv.
# Text: as §1, §2, §3, §4
# as §5, with “COC. […]” for “COC.”
# The treated and control pots were placed in a greenhouse and top watered as needed. […] After approximately 4 weeks, the condition of the test plants as compared with that of the untreated plants was determined visually and scored on a scale of 0 to 100 percent where 0 corresponds to no injury or growth inhibition and 100 corresponds to complete kill. […]
# XANST = test: as above; assay type: in vivo, Xanthium strumarium L.
# Text: as §1, §2, §3, §4, §5, §6
# as §7, with “Nutrients (Peters® Excel 15-5-15 5-Ca 2-Mg) were applied in the irrigation solution as needed and water was added on a regular basis. Supplemental lighting was provided with overhead metal halide 1000-Watt lamps as necessary.” left out, “kill. […]” for “kill.”
# [5] = g ae/ha Compound A Benzyl Ester+g ai/ha carfentrazone-ethyl: r11 8.75+0, r12 0+3.5, r13 0+7, r14 0+14, r15 8.75+3.5, r16 8.75+7, r17 8.75+14
compound,measurement,setting,value
"COc1c(Cl)ccc(-c2nc(C(=O)OCc3ccccc3)c(Cl)c(N)c2F)c1F [Compound A Benzyl Ester, benzyl ester of 4-amino-3-chloro-5-fluoro-6-(4-chloro-2-fluoro-3-methoxy-phenyl)pyridine-2-carboxylic acid]",Visual Weed Control (%) - 21 DAA ECHCG Obs,ECHCG; [5],55%
same,Visual Weed Control (%) - 23 DAA ECHCG Obs,"ECHCG; g ae/ha Compound A Benzyl Ester+g ai/ha oxyfluorfen (SC): r25 4.38+0, r26 0+90, r27 0+180, r28 0+360, r29 4.38+90, r30 4.38+180, r31 4.38+360",40%
same,Visual Weed Control (%) - 21 DAA ECHCG Obs,"ECHCG; g ae/ha Compound A Benzyl Ester+g ai/ha pyraflufen-ethyl: r11 8+0, r12 0+5.3, r13 0+10.6, r14 8+5.3, r15 8+10.6",45%
same,Visual Weed Control (%) - 20 DAA LEFCH Obs,LEFCH [1],30% and 50%
same,Visual Weed Control (%) - 21 DAA CYPIR Obs,"CYPIR; g ae/ha Compound A Benzyl Ester+g ai/ha bifenox (Fox ®): r17 8+0, r18 0+180, r19 0+360, r20 0+720, r21 8+180, r22 8+360, r23 8+720",30%
same,Visual Weed Control (%) - 21 DAA CYPIR Obs,CYPIR; [5],85%
same,Visual Weed Control (%) - 21 DAA CYPIR Obs,"CYPIR; g ae/ha Compound A Benzyl Ester+g ai/ha oxyfluorfen (technical): r27 4.38+0, r28 0+90, r29 0+180, r30 0+360, r31 4.38+90, r32 4.38+180, r33 4.38+360",30%
same,Visual Weed Control (%) - 21 DAA CYPIR Obs,"CYPIR; g ae/ha Compound A Benzyl Ester+g ai/ha pyraflufen-ethyl: r17 8+0, r18 0+2.65, r19 0+5.3, r20 0+10.6, r21 8+2.65, r22 8+5.3, r23 8+10.6",35%
same,Visual Weed Control (%) - 20 DAA CYPIR Obs,"CYPIR; g ae/ha Compound A Benzyl Ester+g ai/ha saflufenacil: r38 4.38+0, r39 0+5, r40 0+10, r41 0+20, r42 4.38+5, r43 4.38+10, r44 4.38+20",70%
same,Visual Weed Control (%) - 21 DAA ECHCO Obs,"ECHCO; g ae/ha Compound A Benzyl Ester+g ai/ha acifluorfen sodium: r11 8+0, r12 0+140, r13 0+280, r14 8+140, r15 8+280",40%
same,Visual Weed Control (%) - 20 DAA ECHCO Obs,"ECHCO; g ae/ha Compound A Benzyl Ester+g ai/ha pyraclonil: r15 4.38+0, r16 0+33.75, r17 0+67.5, r18 0+135, r19 4.38+33.75, r20 4.38+67.5, r21 4.38+135",40%
same,Visual Weed Control (%) - 20 DAA ECHCO Obs,"ECHCO; g ae/ha Compound A Benzyl Ester+g ai/ha saflufenacil: r14 4.38+0, r15 8.75+0, r16 0+10, r17 0+20, r18 4.38+10, r19 8.75+10, r20 4.38+20, r21 8.75+20",60% and 80%
same,Visual Weed Control (%) - 21 DAA IPOHE Obs,IPOHE [2],10%
same,Visual Weed Control (%) - 20 DAA ECHOR Obs,ECHOR; 4.38 g ae/ha alone,10%
same,Visual Weed Control (%) - 21 DAA ECHOR Obs,ECHOR; 8 g ae/ha alone,20%
same,Visual Weed Control (%) - 20 DAA ECHOR Obs,ECHOR; 8.75 g ae/ha alone,15%
same,Visual Weed Control (%) - 21 DAA ECHOR Obs,ECHOR; 8.75 g ae/ha alone,25%
same,Visual Weed Control (%) - 21 DAA ECHOR Obs,ECHOR; 16 g ae/ha alone,45%
same,Visual Weed Control (%) - 21 DAA ECHOR Obs,ECHOR; 17.5 g ae/ha alone,60%
same,Visual Weed Control (%) - 21 DAA ECHOR Obs,ECHOR; 32 g ae/ha alone,60%
same,Visual Weed Control (%) - 20 DAA LEFCH Obs,LEFCH [3]; 4.38 g ae/ha alone,0%
same,Visual Weed Control (%) - 20 DAA LEFCH Obs,LEFCH [3]; 8.75 g ae/ha alone,20%
same,Visual Weed Control (%) - 20 DAA LEFCH Obs,LEFCH [3]; 17.5 g ae/ha alone,30%
same,Visual Weed Control (%) - 21 DAA CYPRO Obs,CYPRO; 4.38 g ae/ha alone,30%
same,Visual Weed Control (%) - 21 DAA CYPRO Obs,CYPRO; 8.75 g ae/ha alone,60%
same,Visual Weed Control (%) - 21 DAA CYPRO Obs,"CYPRO; g ae/ha Compound A Benzyl Ester+g ai/ha oxyfluorfen (SC): r11 32+0, r12 0+135, r13 0+270, r14 32+135, r15 32+270",90%
same,Visual Weed Control (%) - 20 DAA CYPRO Obs,"CYPRO; g ae/ha Compound A Benzyl Ester+g ai/ha pyraclonil: r19 4.38+0, r20 8.75+0, r21 0+45, r22 0+90, r23 4.38+45, r24 8.75+45, r25 4.38+90, r26 8.75+90",20%
same,Visual Weed Control (%) - 21 DAA SCPMA Obs,SCPMA; 48 g ae/ha alone,0%
same,Visual Weed Control (%) - 21 DAA SCPMA Obs,SCPMA; 96 g ae/ha alone,0%
same,Visual Weed Control (%) - 32 DAA IPOHE Obs,IPOHE [4]; 8 g ae/ha alone,65%
same,Visual Weed Control (%) - 28 DAA IPOHE Obs,IPOHE [4]; 16 g ae/ha alone,13%
same,Visual Weed Control (%) - 32 DAA IPOHE Obs,IPOHE [4]; 16 g ae/ha alone,83%
same,Visual Weed Control (%) - 28 DAA IPOHE Obs,IPOHE [4]; 32 g ae/ha alone,23%
same,Visual Weed Control (%) - 28 DAA SETVI Obs,SETVI; 16 g ae/ha alone,10%
same,Visual Weed Control (%) - 28 DAA SETVI Obs,SETVI; 32 g ae/ha alone,10%
same,Visual Weed Control (%) - 29 DAA XANST Obs,XANST; 16 g ae/ha alone,0%
same,Visual Weed Control (%) - 29 DAA XANST Obs,XANST; 32 g ae/ha alone,5%
